How the values were obtained:
C57BL/KsJ-db/db mice = assay: Anti-hyperglycemic activity (blood glucose); assay type: in vivo, mouse (C57BL/KsJ-db/db); settings: Table 15; DHEA = 1×
Protocol: C57BL/KsJ-db/db 8 week old female mice were obtained and housed in polycarbonate cages in animal quarters maintained at 24° C. with 12 h of light and 12 h of darkness each day.
Mice were placed on a control chow or a chow diet containing either 0.4% DHEA or 0.2% of compound 16.
For determination of blood glucose levels, mice were bled from the orbital sinus using a heparinized capillary tube. 0.2 ml of blood was added to 1.8 ml of water to hemolyze the blood and glucose concentration was determined using the glucose oxidase assay.

[1] = molecular target: T1, purified bovine adrenal G6PDH (Bos taurus, UniProt F1MMK2); assay: Inhibition of purified bovine adrenal G6PDH; assay type: biochemical; settings: for G6PDH Inhibition relative to DHEA: Table 3, DHEA = 1×; for inhibition at 1 µM / inhibition at 10 µM / inhibition at 0.1 µM: read-out: Percent Inhibition (G6PDH)
T1 construct: full-length, wild type, no tag
Source text: The compounds listed below are screened as inhibitors of purified bovine adrenal G6PDH activity as one predictor of cancer preventive action. The assay for testing the inhibition of purified bovine adrenal G6PDH is according to the procedure by Oertel, G. W. and Rebelein, I. in Biochem. Biophys. Acta, 184, 459-460 (1969). The results are given below in Table I:
Both of the above tests, i.e., the inhibition of mammalian glucose-6-phosphate dehydrogenase (G6PDH) and the inhibition of tumor promoter (TPA) stimulation of ^3 H-thymidine incorporation in mouse epidermis are recognized as indicators of cancer prophylactic activity. The following Table compares the efficacy of representative compounds of the present invention in these two tests with that of DHEA: […]

[2] = test system: TPA (Tumor Promoter) Stimulation of Mouse Epidermal DNA; assay: Inhibition of TPA stimulation of mouse epidermal DNA synthesis (3H-thymidine incorporation), oral; assay type: in vivo, mouse (ICR male); settings: Table 3; DHEA = 1×; oral
Source text: Synthesis rate by orally administered steroids.
The inhibition of tumor promoter stimulation of mouse epidermal DNA synthesis rate by steroids may also contribute to cancer preventive activity. The following assay is used:
ICR male mice (7-9 weeks old) were shaved on the back 1-2 days before use. Only mice showing no hair regrowth were used. Animals were orally intubated with a particular steroid suspended by homogenization in sesame oil or with sesame oil alone (controls). One hour later TPA (10 μg in 0.2 ml of acetone) or acetone vehicle was applied topically to the shaved skin. Twenty hours later, mice were injected i.p. with 60 μCi of ^3 H-thymidine 20 minutes before sacrifice. The animals were killed by cervical dislocation and the residual hair was removed with a depilatory agent. Epidermal scrapings were prepared according to the procedures of Hennings et al. (Cancer Res. 28, 53, 1968), homogenized in distilled water at 4° C., and the macromolecules precipitated with 0.4N trichloroacetic acid (TCA). Following 6 washes with absolute ethanol at room temperature, the nucleic acids were hydrolyzed with 0.5N TCA at 70° C. for 5 minutes. The hydrolysate (0.2 ml aliquots) were counted in an Intertechnique scintillation counter and assayed for DNA by the diphenylamine reaction.
The data are expressed as counts per minute (cpm) of tritium per μg of DNA.
A similar oral dose-response experiment with compound 16 and DHEA was performed.
Both of the above tests, i.e., the inhibition of mammalian glucose-6-phosphate dehydrogenase (G6PDH) and the inhibition of tumor promoter (TPA) stimulation of ^3 H-thymidine incorporation in mouse epidermis are recognized as indicators of cancer prophylactic activity. The following Table compares the efficacy of representative compounds of the present invention in these two tests with that of DHEA:
Male ICR mice were orally intubated with steroid suspended in sesame oil (0.5 ml/mouse) at the indicated dose. Mice not receiving steroid were given sesame oil alone. One hour later mice received topical application of TPA and 20 hours later the rate of ^3 H-thymidine incorporation into the epidermis was determined as described in Table 4.
Male ICR mice were orally intubated with steroid suspended in sesame oil (0.5 ml/mouse) at the indicated dose. Mice not receiving steroid were given sesame oil alone. One hour later mice received topical application of TPA, and 20 hours later the rate of ^3 H-thymidine incorporation into the epidermis was determined as described in Table 4.

[3] = Anti-obesity test (body weight, food consumption); assay type: in vivo, mouse (male A/J); settings: Table 14; DHEA = 1×
Protocol: Male A/J mice (5 weeks old) were obtained from the Jackson Laboratory and were housed in polycarbonate cages (5 mice/cage) in animal quarters maintained at 24°±1° C. with 12 hours of light and 12 hours of darkness each day. One week after arrival, the mice were placed on a chow diet containing varying concentrations of DHEA or other steroid. Animals were weighed weekly; food consumption was determined weekly by subtracting the amount of food remaining in the cage from the amount added.
Male A/J (5 weeks old) were obtained from the Jackson Laboratory and were housed in polycarbonate cages (5 mice/cage) in animal quarters maintained at 24°±1° C. with 12 hours of light and 12 hours of darkness each day. One week after arrival, the mice were placed on a diet containing either DHEA, 19, or without steroid. Animals were weighed weekly. The concentration of DHEA or 19 used in the food was 0.54%.
Male A/J mice (5 weeks old) were obtained from the Jackson Laboratory and were housed in polycarbonate cages (5 mice/cage) in animal quarters maintained at 24°±1° C. with 12 hours of light and 12 hours of darkness each day. One week after arrival, the mice were placed on a show diet containing DHEA, 16, or 21 at 0.36%. Animals were weighed weekly.

T1 sequence (F1MMK2 31-70): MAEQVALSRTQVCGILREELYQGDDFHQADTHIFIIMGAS
T1 sequence (F1MMK2 101-575): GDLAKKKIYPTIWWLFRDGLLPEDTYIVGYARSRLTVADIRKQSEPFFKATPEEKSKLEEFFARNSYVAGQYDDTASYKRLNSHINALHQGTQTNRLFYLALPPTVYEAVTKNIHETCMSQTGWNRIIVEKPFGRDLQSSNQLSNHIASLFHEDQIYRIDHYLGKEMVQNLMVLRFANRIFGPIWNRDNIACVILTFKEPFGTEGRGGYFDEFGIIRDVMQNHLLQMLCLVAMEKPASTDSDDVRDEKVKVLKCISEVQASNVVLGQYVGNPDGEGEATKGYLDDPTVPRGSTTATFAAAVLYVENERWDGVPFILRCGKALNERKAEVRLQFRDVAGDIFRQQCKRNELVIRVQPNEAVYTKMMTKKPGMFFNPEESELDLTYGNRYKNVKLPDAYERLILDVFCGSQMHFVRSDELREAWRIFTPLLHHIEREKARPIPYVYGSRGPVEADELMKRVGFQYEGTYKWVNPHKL

## C[C@]12CC[C@H](Cl)CC1=CC[C@@H]1[C@@H]2CC[C@]2(C)C(=O)CC[C@@H]12 [drawing 103]
C57BL/KsJ-db/db mice
  Anti-diabetic Activity relative to DHEA: 1 ×

## C[C@H]1CC[C@@]2(C)C(=CC[C@@H]3[C@@H]2CC[C@]2(C)C(=O)[C@H](F)C[C@@H]32)C1 [drawing 94]
[1]
  G6PDH Inhibition relative to DHEA: 5-10 ×
[2]
  Inhibition of TPA Effect on Epidermis Following Oral Administration, relative to DHEA: > 10 ×

## C[C@]12CC[C@H](Cl)CC1=CC[C@@H]1[C@@H]2CC[C@]2(C)C(=O)CC[C@@H]12 [drawing 100]
[3]
  Anti-obesity Activity relative to DHEA: ~ 1 ×

## C[C@H]1CC[C@@]2(C)C(=CC[C@@H]3[C@@H]2CC[C@]2(C)C(=O)[C@](C)(F)C[C@@H]32)C1 [Compound 22]
[1]; Conc. 1 μm
  inhibition at 1 µM: 53%
[1]; Conc. 10 μm
  inhibition at 10 µM: 65%

## CC[C@H]1CC[C@@]2(C)C(=CC[C@@H]3[C@@H]2CC[C@]2(C)C(=O)CC[C@@H]32)C1 [drawing 91]
[1]
  G6PDH Inhibition relative to DHEA: ~ 1.5 ×

## C[C@H]1CC[C@@]2(C)C(=CC[C@@H]3[C@@H]2CC[C@]2(C)C(=O)CC[C@@H]32)C1 [drawing 102]
C57BL/KsJ-db/db mice
  Anti-diabetic Activity relative to DHEA: 3 ×

## C[C@H]1CC[C@@]2(C)C(=CC[C@@H]3[C@@H]2CC[C@]2(C)C(=O)[C@H](O)C[C@@H]32)C1 [drawing 98]
[3]
  Anti-obesity Activity relative to DHEA: ~ 0.8 ×

## C[C@@H]1[C@H](O)CC[C@@]2(C)[C@H]1CC[C@@H]1[C@@H]2CC[C@]2(C)C(=O)CC[C@@H]12 [Compound 11]
[1]; Conc. 10 μm
  inhibition at 10 µM: 35%

## C[C@]12CCCCC1=CC[C@@H]1[C@@H]2CC[C@]2(C)C(=O)CC[C@@H]12 [Compound 14]
[1]; Conc. 1 μm
  inhibition at 1 µM: 30%
[1]; Conc. 10 μm
  inhibition at 10 µM: 75%

## C[C@@H]1C[C@@]2(C)C(=CC[C@@H]3[C@@H]2CC[C@]2(C)C(=O)CC[C@@H]32)C[C@H]1O
[1]
  G6PDH Inhibition relative to DHEA: ~ 1 ×

## C[C@]12CC[C@H](O)C[C@@H]1CC[C@@H]1[C@@H]2CC[C@]2(C)C(=O)[C@H](I)C[C@@H]12 [Compound 7]
[1]; Conc. 10 μm
  inhibition at 10 µM: 51%

## C[C@H]1CC[C@@]2(C)C(=CC[C@@H]3[C@@H]2CC[C@]2(C)C(=O)[C@H](O)C[C@@H]32)C1 [drawing 89]
[1]
  G6PDH Inhibition relative to DHEA: ~ 2 ×
[2]
  Inhibition of TPA Effect on Epidermis Following Oral Administration, relative to DHEA: 5 ×

## CCCC[C@H]1CC[C@@]2(C)C(=CC[C@@H]3[C@@H]2CC[C@]2(C)C(=O)CC[C@@H]32)C1 [Compound 17]
[1]; Conc. 0.1 μm
  inhibition at 0.1 µM: 49%
[1]; Conc. 1 μm
  inhibition at 1 µM: 45%
[1]; Conc. 10 μm
  inhibition at 10 µM: 60%

## C[C@]12CCCC[C@@H]1CC[C@@H]1[C@@H]2CC[C@]2(C)C(=O)CC[C@@H]12 [drawing 96]
[3]
  Anti-obesity Activity relative to DHEA: ~ 0.5 ×

## C[C@H]1CC[C@@]2(C)C(=CC[C@@H]3[C@@H]2CC[C@]2(C)C(=O)CC[C@@H]32)C1 [drawing 97]
[3]
  Anti-obesity Activity relative to DHEA: ~ 3 ×

## C[C@H]1CC[C@@]2(C)C(=CC[C@@H]3[C@@H]2CC[C@]2(C)C(=O)[C@H](C)C[C@@H]32)C1 [drawing 99]
[3]
  Anti-obesity Activity relative to DHEA: ~ 1 ×

## C[C@]12CC[C@H](O)C[C@@H]1CC[C@@H]1[C@@H]2CC[C@]2(C)C(=O)[C@H](Cl)C[C@@H]12 [Compound 6]
[1]; Conc. 10 μm
  inhibition at 10 µM: 72%

## CC[C@H]1CC[C@@]2(C)C(=CC[C@@H]3[C@@H]2CC[C@]2(C)C(=O)CC[C@@H]32)C1 [drawing 101]
[3]
  Anti-obesity Activity relative to DHEA: ~ 0.5 ×

## C[C@]12CC[C@H](O)C[C@@H]1CC[C@@H]1[C@@H]2CC[C@]2(C)C(=O)[C@H](Br)C[C@@H]12 [Compound 4]
[1]; Conc. 10 μm
  inhibition at 10 µM: 90%

## C[C@H]1C2=CC[C@@H]3[C@H](CC[C@]4(C)C(=O)CC[C@@H]34)[C@@]2(C)CC[C@@H]1O [Compound 11a]
[1]; Conc. 1 μm
  inhibition at 1 µM: 72%
[1]; Conc. 10 μm
  inhibition at 10 µM: 87%

## C[C@]12CC[C@H](O)C[C@@H]1CC[C@@H]1[C@@H]2CC[C@]2(C)C(=O)[C@H](F)C[C@@H]12 [Compound 8]
[1]; Conc. 10 μm
  inhibition at 10 µM: 66%

## C[C@]12CC[C@H](F)CC1=CC[C@@H]1[C@@H]2CC[C@]2(C)C(=O)CC[C@@H]12 [Compound 9]
[1]; Conc. 10 μm
  inhibition at 10 µM: 22%

## C[C@]12CC[C@H](O)CC1=CC[C@@H]1[C@@H]2CC[C@]2(C)C(=O)[C@H](Br)C[C@@H]12 [Compound 5]
[1]; Conc. 10 μm
  inhibition at 10 µM: 74%

## C[C@]12CC[C@@H](O)C[C@@H]1CC[C@@H]1[C@@H]2CC[C@]2(C)C(=O)CC[C@@H]12 [Compound 10]
[1]; Conc. 10 μm
  inhibition at 10 µM: 35%

## C[C@]12CC[C@H](Cl)CC1=CC[C@@H]1[C@@H]2CC[C@]2(C)C(=O)CC[C@@H]12 [drawing 90]
[1]
  G6PDH Inhibition relative to DHEA: 0.5 ×
[2]
  Inhibition of TPA Effect on Epidermis Following Oral Administration, relative to DHEA: 1-1.5 ×

## C[C@]12CCCC[C@@H]1CC[C@@H]1[C@@H]2CC[C@]2(C)C(=O)CC[C@@H]12 [drawing 86]
[1]
  G6PDH Inhibition relative to DHEA: > 2 ×
[2]
  Inhibition of TPA Effect on Epidermis Following Oral Administration, relative to DHEA: ~ 1.5 ×

## C[C@]12CC[C@H](O)C[C@@H]1CC[C@@H]1[C@@H]2CC[C@]2(C)C(=O)CC[C@@H]12 [drawing 85]
[1]
  G6PDH Inhibition relative to DHEA: ~ 1.5 ×
[2]
  Inhibition of TPA Effect on Epidermis Following Oral Administration, relative to DHEA: ~ 1 ×

## C[C@H]1CC[C@@]2(C)C(=CC[C@@H]3[C@@H]2CC[C@]2(C)C(=O)[C@H](C)C[C@@H]32)C1 [drawing 88]
[1]
  G6PDH Inhibition relative to DHEA: ~ 0.5 ×

## CCCC[C@H]1CC[C@@]2(C)C(=CC[C@@H]3[C@@H]2CC[C@]2(C)C(=O)CC[C@@H]32)C1 [drawing 92]
[1]
  G6PDH Inhibition relative to DHEA: ~ 2 ×

## CC1(C)C2=CC[C@@H]3[C@H](CC[C@]4(C)C(=O)CC[C@@H]34)[C@@]2(C)CC[C@@H]1O [Compound 12]
[1]; Conc. 10 μm
  inhibition at 10 µM: 48%

## CC[C@H]1CC[C@@]2(C)C(=CC[C@@H]3[C@@H]2CC[C@]2(C)C(=O)CC[C@@H]32)C1 [Compound 13]
[1]; Conc. 0.1 μm
  inhibition at 0.1 µM: 58%
[1]; Conc. 1 μm
  inhibition at 1 µM: 55%
[1]; Conc. 10 μm
  inhibition at 10 µM: 73%

## Androst-5-en-17-one [Compound 15, reference compound]
[1]; Conc. 0.1 μm
  Percent Inhibition (G6PDH): 26%
[1]; Conc. 1 μm
  Percent Inhibition (G6PDH): 40%
[1]; Conc. 10 μm
  Percent Inhibition (G6PDH): 46%

## CC1=C2C[C@@H](O)CC[C@]2(C)[C@H]2CC[C@]3(C)C(=O)CC[C@H]3[C@@H]2C1 [Compound 18]
[1]; Conc. 0.1 μm
  inhibition at 0.1 µM: 10%
[1]; Conc. 1 μm
  inhibition at 1 µM: 18%
[1]; Conc. 10 μm
  inhibition at 10 µM: 45%

## C[C@]12CC[C@H](O)C[C@@H]1CC[C@@H]1[C@@H]2CC[C@]2(C)C(=O)CC[C@@H]12 [drawing 95]
[3]
  Anti-obesity Activity relative to DHEA: ~ 0.5 ×

Source: patent US5804576A, “Derivatives of 5-androsten-17-ones and 5-androstan-17-ones” (Research Corporation Technologies, Inc., priority 1986, dated 1998)
